Source: patent US9636299B2, “Method for treating diabetic retinopathy” (XAVIER UNIVERSITY OF LOUISIANA, priority 2012, dated 2017)
Residues, ends and D or L forms follow the SMILES beside them.

Legend:
heparan sulfate (HS) = assay: Heparan sulfate shedding in high glucose-treated hRMECs (Western blot); assay type: cell-based, human; details: 30 mM glucose 72 hours, 50 or 100 μM apoEdp
Text: Cell Culture. Primary cultures of human retina microvascular endothelial cells (hRMECs) were purchased from the Applied Cell Biology Research Institute and grown on attachment factor-coated plates in cell systems complete (CSC) medium (Cell Systems, Kirkland, Wash.) supplemented with 20% fetal bovine serum, culture boost (animal derived growth factors) and bac-off (antibiotics). The primary hRMECs were used in their passages 4 to 6. The 18-a.a. apoE mimetic peptide apoEdp (SEQ ID NO:3, Ac-LRKLRKRLLLRKLRKRLL-amide), derived from the human apolipoprotein E receptor-binding region (see SED ID NO:1) between residues 141 and 149, was synthesized (Genemed, Arlington, Tex.) with a purity of greater than 95%. The apoEdp peptide was dissolved in phosphate-buffered saline (“PBS”) at a concentration appropriate for further experimental use. […]
Western Blotting. […] The total protein concentration was determined using a BCA protein assay kit (Pierce, Rockford, Ill.). […] To ensure the equal loading of protein in each lane, each membrane was stripped and re-probed with an antibody against β-actin, and the chemiluminescence was detected as described previously. After scanning the blots with a flatbed scanner, band intensities were analyzed using ImageJ (NIH) and the relative intensity values were normalized to control values. […]

occludin = assay: Streptozotocin-induced diabetic mice, retinal occludin mRNA by real-time RT-PCR; assay type: in vivo, mouse; details: 14 days, vs diabetic non-treated
Procedure: RNA Extraction, Reverse Transcription, & PCR. Following euthanasia, mouse eyes were enucleated and placed immediately into RNAlater® RNA stabilization reagent (Qiagen, Hilden, Germany). Intraocular fluids were aspirated and pooled, and total cellular RNA was isolated using an RNeasy® Mini Kit (Qiagen) according to the manufacturer's instructions. Gene expression was measured at RNA level per 100 ng of total RNA using one-step RT-PCR kit (Bio-Rad, Hercules, Calif.). Four host genes (mouse GAPDH, mouse MMP2, mouse HPSE-1 (heparanase-1), and mouse MMP9) were analyzed to confirm relative quantitative expression levels. The primer pairs used were specifically designed and synthesized by Qiagen GmbH, Hilden, Germany (Quantitech Primer assay kit, for each host gene, catalog numbers QT01658692, QT00088396, QT00009555, and QT00040040, respectively). One-step Real-time quantitative RT-PCR reactions were performed in a 50-μL volume containing a solution of 1× supermix (iQ SYBR Green; Bio-Rad, Hercules, Calif.), 1 μM mix of forward and reverse primers, and 5 μL total RNA. A four-step protocol was used: denaturation, 3 minutes at 95° C.; amplification and quantification, 40 cycles of 15 seconds at 95° C. followed by 30 seconds at 60° C.; melting curve, 60 to 95° C. with a heating rate of 0.5° C. per second; followed by cooling (MyiQ Single Color Real-Time PCR Detection System; Bio-Rad). […]

## CC(=O)N[C@@H](CC(C)C)C(=O)N[C@@H](CCCNC(=N)N)C(=O)N[C@@H](CCCCN)C(=O)N[C@@H](CC(C)C)C(=O)N[C@@H](CCCNC(=N)N)C(=O)N[C@@H](CCCCN)C(=O)N[C@@H](CCCNC(=N)N)C(=O)N[C@@H](CC(C)C)C(=O)N[C@@H](CC(C)C)C(=O)N[C@@H](CC(C)C)C(=O)N[C@@H](CCCNC(=N)N)C(=O)N[C@@H](CCCCN)C(=O)N[C@@H](CC(C)C)C(=O)N[C@@H](CCCNC(=N)N)C(=O)N[C@@H](CCCCN)C(=O)N[C@@H](CCCNC(=N)N)C(=O)N[C@@H](CC(C)C)C(=O)N[C@@H](CC(C)C)C(N)=O [apoEdp, Ac-LRKLRKRLLLRKLRKRLL-amide] (Ac-LRKLRKRLLLRKLRKRLL-NH2)
Heparan sulfate (HS)
  High glucose-induced shedding of HS: reduced the shedding
occludin; 1% apoEdp eye drop 4 times a day
  Down-regulation of occludin-specific mRNA in retina: significantly inhibited the down-regulation
occludin; i/p injection 40 mg/kg daily
  Down-regulation of occludin-specific mRNA in retina: significantly inhibited the down-regulation
